Measured values as given in US9675592B2, “Methods and compositions for bacteria infections” (priority 2013, dated 2017).
Like-named read-outs stand apart in the source and are kept apart here.

Experiments:
[1] = target: cytoplasmic domain of VraS (VraS-C) (Staphylococcus aureus, UniProt Q99SZ7); assay: biochemical; type: binding; settings: new run with His-tagged VraS; NB = No Binding; read-out: KD VraS
[2] = target: VraR (Staphylococcus aureus, UniProt Q7A4R9); assay: biochemical; type: binding; settings: His-tagged VraR; NB = No Binding
[3] = tested on: vraSR promoter (Pvra-lux reporter in strain 923); type: cell-based, Staphylococcus aureus; settings: for RL Ox avg: Top 40 library, with oxacillin, compound at maximum non-GI conc; for vraSR repressing synergist: overall class from syn and rep
Experimental: In the secondary screen each microtiter plate contained either cells in TSB alone (16 replicates), cells with oxacillin (2 μg/mL, 31 replicates), or cells with test compound and oxacillin (2 μg/mL, 49 wells). Each compound was assayed in four separate biological replicates. […]

[4] = tested on: test strain 923 pPvra-lux; assay: Secondary screen / synergy confirmation of Top 40, relative growth with oxacillin; type: cell-based, Staphylococcus aureus; settings: Top 40 library, compound at maximum non-GI conc
Experimental: In the secondary screen each microtiter plate contained either cells in TSB alone (16 replicates), cells with oxacillin (2 μg/mL, 31 replicates), or cells with test compound and oxacillin (2 μg/mL, 49 wells). Each compound was assayed in four separate biological replicates.
Synergy Confirmation of “Top 40”. […]

[5] = tested on: vraSR promoter (Pvra-lux reporter in strain 923); assay: Primary screen, relative luminescence (vraSR expression)
[6] = tested on: test strain 923 pPvra-lux (USA300 MRSA); assay: Primary screen, relative growth in presence of oxacillin; settings: compound 10 μM with oxacillin 2 μg/mL, absorbance 24 h, <0.50 = dead cells = hit
[7] = tested on: test strain (923 pPvra-lux); assay: Growth inhibition by compound alone (maximum non-growth-inhibitory concentration); type: cell-based, Staphylococcus aureus; settings: compound alone; maximum concentration where it did NOT inhibit growth
[8] = tested on: multiple strains of MRSA; assay: MICs (minimal inhibitory concentrations) vs multiple strains of MRSA; type: cell-based, Staphylococcus aureus
[9] = primary screen, compound 10 μM with oxacillin 2 μg/mL, <0.50 = vraSR repressed = hit

Sequence of cytoplasmic domain of VraS (VraS-C) (Q99SZ7 70-347): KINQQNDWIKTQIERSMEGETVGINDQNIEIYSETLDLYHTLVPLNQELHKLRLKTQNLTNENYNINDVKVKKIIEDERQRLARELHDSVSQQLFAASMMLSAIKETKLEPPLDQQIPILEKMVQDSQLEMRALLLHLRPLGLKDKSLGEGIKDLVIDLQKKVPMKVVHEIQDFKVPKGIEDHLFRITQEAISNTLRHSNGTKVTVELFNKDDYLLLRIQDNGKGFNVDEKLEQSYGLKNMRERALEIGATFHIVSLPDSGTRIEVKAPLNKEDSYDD
Sequence of VraR (Q7A4R9 whole entry): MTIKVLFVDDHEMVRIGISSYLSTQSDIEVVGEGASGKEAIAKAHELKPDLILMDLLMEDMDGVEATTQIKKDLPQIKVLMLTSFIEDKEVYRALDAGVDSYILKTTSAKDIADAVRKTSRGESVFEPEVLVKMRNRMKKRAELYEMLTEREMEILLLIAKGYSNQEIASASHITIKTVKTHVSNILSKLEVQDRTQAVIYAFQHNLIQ

| SMILES | RL Ox avg [3] | vraSR repressing synergist [3] | RG Ox avg [4] | RL avg (relative luminescence) [5, 9] | RG avg (relative growth) [6] | maximum non-GI conc [7] [µg/mL] | further results |
| --- | --- | --- | --- | --- | --- | --- | --- |
| Cc1cc2c(C(C)C)c(O)c(O)c(C=O)c2c(O)c1-c1c(C)cc2c(C(C)C)c(O)c(O)c(C=O)c2c1O [Gos, Gossypol, reference compound] |  |  |  |  |  |  | Kd [1]: > 100 µM; Kd [2]: > 100 µM |
| O=C(Nc1nc(-c2ccccn2)cs1)c1ccc(Br)s1 [F0447-0273] | 0.08 | 1. confirmed | 0.39 | −0.09 | −0.08 | 40 |  |
| O=C(Nc1ccc(Cl)c(Cl)c1)Nc1ccc2cn[nH]c2c1 [F5882-3050] | 0.07 | 1. confirmed | 0.02 | 0.25 | 0.39 | 400 | Ox MIC in presence of compound ([8]; isolate 923, SCCmec IV, ST 8, compound at 2 mg/L): <0.25 µg/mL; Ox MIC in presence of compound ([8]; isolate 1176, SCCmec II, ST 231, compound at 2 mg/L): <0.5 µg/mL; Ox MIC in presence of compound ([8]; isolate 2169, SCCmec IV, ST 72, compound at 2 mg/L): <0.25 µg/mL; Ox MIC in presence of compound ([8]; isolate 8004-01, SCCmec III, ST 239, compound at 2 mg/L): 32 µg/mL; Ox MIC in presence of compound ([8]; isolate 8010-01, SCCmec IV, ST 8, compound at 2 mg/L): <0.25 µg/mL; Ox MIC in presence of compound ([8]; isolate 8227-01, SCCmec IV, ST 87, compound at 2 mg/L): <0.06 µg/mL; Ox MIC in presence of compound ([8]; isolate 11095, SCCmec II, ST 105, compound at 2 mg/L): <2 µg/mL; Ox MIC in presence of compound ([8]; isolate 13113, SCCmec II, ST 5, compound at 2 mg/L): <0.13 µg/mL; Ox MIC in presence of compound ([8]; isolate 13354, SCCmec IV, ST 5, compound at 2 mg/L): <0.13 µg/mL; Ox MIC in presence of compound ([8]; isolate 14315, SCCmec IV, ST 1, compound at 2 mg/L): <0.5 µg/mL; Ox MIC in presence of compound ([8]; isolate Q2461, SCCmec VT, ST 59, compound at 2 mg/L): 0.5 µg/mL |
| OC(c1ccccc1)c1nc2ccccc2n1Cc1ccc(Cl)c(Cl)c1 (centres unmarked) [F3068-0037] | 0.11 | 1. confirmed | −0.01 | 0.05 | −0.02 | 400 |  |
| O=C(Nc1nnc(-c2ccc(OC(F)(F)F)cc2)o1)C1(c2cccs2)CCCC1 [F2517-0863] | 1.18 | 3. no effect | 0.92 | −0.06 | 0.02 | 4 |  |
| Oc1ccc(C2(c3cccc(Br)c3)CCCCC2)cc1 [F0020-1560] | 0.17 | 2. possible | 0.68 | −0.01 | 0.02 | 40 | Ox MIC in presence of compound ([8]; isolate 923, SCCmec IV, ST 8, compound at 1 mg/L): 1 µg/mL; Ox MIC in presence of compound ([8]; isolate 1176, SCCmec II, ST 231, compound at 1 mg/L): <0.5 µg/mL; Ox MIC in presence of compound ([8]; isolate 2169, SCCmec IV, ST 72, compound at 1 mg/L): 1 µg/mL; Ox MIC in presence of compound ([8]; isolate 8004-01, SCCmec III, ST 239, compound at 1 mg/L): <4 µg/mL; Ox MIC in presence of compound ([8]; isolate 8010-01, SCCmec IV, ST 8, compound at 1 mg/L): 1 µg/mL; Ox MIC in presence of compound ([8]; isolate 8227-01, SCCmec IV, ST 87, compound at 1 mg/L): 0.25 µg/mL; Ox MIC in presence of compound ([8]; isolate 11095, SCCmec II, ST 105, compound at 1 mg/L): <2 µg/mL; Ox MIC in presence of compound ([8]; isolate 13113, SCCmec II, ST 5, compound at 1 mg/L): <0.13 µg/mL; Ox MIC in presence of compound ([8]; isolate 13354, SCCmec IV, ST 5, compound at 1 mg/L): <0.13 µg/mL; Ox MIC in presence of compound ([8]; isolate 14315, SCCmec IV, ST 1, compound at 1 mg/L): <0.5 µg/mL; Ox MIC in presence of compound ([8]; isolate Q2461, SCCmec VT, ST 59, compound at 1 mg/L): 4 µg/mL |
| O=C(Nc1ccc(Cl)c(C(F)(F)F)c1)N1CCN(c2cc(-n3cccn3)ncn2)CC1 [F5562-0130] | 0.57 | 3. no effect | 1.03 | −0.08 | 0.02 | 40 |  |
| O=C(CCCSc1ccc(Cl)cc1)Nc1nc(-c2ccccn2)cs1 [F2813-0883] | 1.28 | 3. no effect | 1.03 | −0.01 | −0.03 | 40 |  |
| Cc1ccc(S(=O)(=O)Nc2ccccc2C(=O)Nc2nc3c(C)ccc(C)c3s2)cc1 [F1813-0712] | 0.20 | 2. possible | 0.71 |  | −0.01 | 400 | RL avg (relative luminescence) [5]: 0.00; Ox MIC in presence of compound ([8]; isolate 923, SCCmec IV, ST 8, compound at 4 mg/L): 4 µg/mL; Ox MIC in presence of compound ([8]; isolate 1176, SCCmec II, ST 231, compound at 4 mg/L): 16 µg/mL; Ox MIC in presence of compound ([8]; isolate 2169, SCCmec IV, ST 72, compound at 4 mg/L): 8 µg/mL; Ox MIC in presence of compound ([8]; isolate 8004-01, SCCmec III, ST 239, compound at 4 mg/L): 512 µg/mL; Ox MIC in presence of compound ([8]; isolate 8010-01, SCCmec IV, ST 8, compound at 4 mg/L): 16 µg/mL; Ox MIC in presence of compound ([8]; isolate 8227-01, SCCmec IV, ST 87, compound at 4 mg/L): 0.5 µg/mL; Ox MIC in presence of compound ([8]; isolate 11095, SCCmec II, ST 105, compound at 4 mg/L): 256 µg/mL; Ox MIC in presence of compound ([8]; isolate 13113, SCCmec II, ST 5, compound at 4 mg/L): 16 µg/mL; Ox MIC in presence of compound ([8]; isolate 13354, SCCmec IV, ST 5, compound at 4 mg/L): 8 µg/mL; Ox MIC in presence of compound ([8]; isolate 14315, SCCmec IV, ST 1, compound at 4 mg/L): 16 µg/mL; Ox MIC in presence of compound ([8]; isolate Q2461, SCCmec VT, ST 59, compound at 4 mg/L): 16 µg/mL |
| O=C(Nc1ccccc1-c1nc2ccccc2[nH]1)c1ccccc1Br [F0015-0758] | 0.25 | 3. no effect | 0.92 | 0.33 | −0.06 | 400 |  |
